{
  "source": "paper PMC7956560",
  "about": "“New 3-Aryl-2-(2-thienyl)acrylonitriles with High Activity Against Hepatoma Cells” (International Journal of Molecular Sciences, 2021)",
  "key": {"[1]": {"test_system": "human HepG2 hepatoblastoma cells", "test": "Growth inhibition, crystal violet staining, HepG2", "type": "cell-based", "conditions": "48 h incubation, mean ± SD, read-out: Anti-proliferative activity IC50, HepG2", "procedure": "(§1) The well-differentiated p53 wild-type human hepatoblastoma cell line HepG2 (ATCC# 8065) and the highly differentiated p53 mutated human hepatocellular carcinoma cell line Huh-7 (JCRB#0403) were grown in RPMI 1640 medium supplemented with 10% fetal bovine serum and 100 U/mL penicillin and […] streptomycin. Murine AML-12 hepatocytes were obtained from ATCC (CRL-2254) and grown in DMEM/F-12 Glutamax medium supplemented with 10% fetal bovine serum, 10 µg/mL insulin, 5.5 µg/mL transferrin, 5 ng/mL selenium (Gibco ITS-G 100X) and 40 ng/mL dexamethasone (Sigma-Aldrich). All cell lines were incubated in a 37 °C, 5% CO2, 95% humidified atmosphere.\n(§2) Treatment-induced changes in cell number were evaluated by crystal violet staining, as previously described. Briefly, 1.500 cells per well were seeded in 96-well plates for 24 h at 37 °C, 5% CO2. For the experiments with HepG2 and Huh-7 cell lines, cells were incubated with rising concentrations (0–20 µM) of the new compounds (1a–1o) for 48 h. AML12-cells were treated with compounds 1a, 1b, 1c, 1e, 1i and 1j for 48 h and at concentrations ranging from 0.5–64 µM. Thereafter, the cells were fixed with 1% glutaraldehyde and stained with 0.1% crystal violet (Sigma-Aldrich). The unbound dye was removed by rinsing with water. Bound crystal violet was solubilized with 0.2% Triton X-100 (Sigma-Aldrich). Light extinction of crystal violet, which increases linearly with cell number, was analyzed at 570 nm using an ELISA-Reader (Dynex Technologies, Denkendorf, Germany). All experiments were carried out in duplicate or triplicate."}, "[2]": {"test_system": "human Huh-7 HCC cells", "test": "Growth inhibition, crystal violet staining, Huh-7", "type": "cell-based", "conditions": "48 h incubation, mean ± SD, read-out: Anti-proliferative activity IC50, Huh-7", "procedure": "as §1, §2"}, "[3]": {"test_system": "non-malignant murine AML-12 hepatocytes", "test": "Growth inhibition, crystal violet staining, AML-12", "type": "cell-based", "procedure": "as §1, §2"}, "[4]": {"test_system": "HepG2-tumors grown on membranes of fertilized chicken eggs", "test": "Chorioallantoic membrane (CAM) assay", "type": "in vivo", "procedure": "The chorioallantoic membrane (CAM) assay was performed as described previously. Fertilized chicken eggs (Gallus gallus) were obtained from commercial sources (Valo GmbH, Germany) and incubated in a humid environment at 38 °C. On day 3 of the egg development, a window was cut in the eggshell to access the developing vascular network of the CAM. At day 10 of chicken embryo development, a sterile silicon ring (10 mm diameter) was placed on the CAM and tumor plugs of 3 × 10^6 HepG2 cells in 20 µL Matrigel (BD Biosciences) with reduced growth factors were placed inside the silicon ring. After 24 h at 38 °C in an incubator, the tumor plaques attached and connected to the (tumor-)feeding CAM microvasculature. Then, the tumor plaques were topically treated with either PBS (negative control) or PBS containing rising concentrations of 1b (0–10 µM), 1c (0–2.5 µM) or sorafenib (10 μM) for 3 days. Tumor growth and viability of the embryo were controlled daily by stereo microscopy. After 72 h of treatment, the tumors were recovered for weighing and pictures were taken using a stereomicroscope equipped with a Kappa digital camera system (Kappa Optronics GmbH, Germany). For data analysis, the tumor weight of 1c-treated and untreated control tumors was determined and the mean weight of treated vs. untreated tumors of 11 eggs for each condition was calculated. Statistical significance evaluated by one-way ANOVA tests."}, "[5]": {"test_system": "caspase-3 activity of HepG2 cells", "test": "Apoptosis-specific caspase-3 activity", "type": "cell-based, human", "conditions": "HepG2, 1 and 10 µM, 24 h", "procedure": "Changes in caspase-3 activity were measured by the cleavage of the fluorogenic substrate AC-DEVD-AMC (EMD Millipore, Billerica, MA, USA), as described previously. After 24 h of incubation with 1a, 1b, 1c, 1e and sorafenib (1 and 10 µM) the cells were harvested and lysed with lysis buffer. Subsequently, the lysates were incubated for 1 h at 37 °C with a substrate solution containing 20 μg/mL AC-DEVD-AMC, 20 mM HEPES, 10% glycerol and 2 mM DTT at pH 7.5. Substrate cleavage was measured fluorometrically using a Varioskan Flash Fluorometer (Thermo Fisher Scientific, Waltham, MA, USA; filter sets: ex 360/40 nm, em 460/10 nm). n = 3 independent measurements were performed in triplicate, and data are given as the mean percentage increase ± SD above control, which was set 100%."}, "[6]": {"target": "T1, CLK1 (Homo sapiens, UniProt P49759)", "T1 construct": "purchased Eurofins KinaseProfiler service (Eurofins, France)", "T1 sequence (P49759 whole entry)": "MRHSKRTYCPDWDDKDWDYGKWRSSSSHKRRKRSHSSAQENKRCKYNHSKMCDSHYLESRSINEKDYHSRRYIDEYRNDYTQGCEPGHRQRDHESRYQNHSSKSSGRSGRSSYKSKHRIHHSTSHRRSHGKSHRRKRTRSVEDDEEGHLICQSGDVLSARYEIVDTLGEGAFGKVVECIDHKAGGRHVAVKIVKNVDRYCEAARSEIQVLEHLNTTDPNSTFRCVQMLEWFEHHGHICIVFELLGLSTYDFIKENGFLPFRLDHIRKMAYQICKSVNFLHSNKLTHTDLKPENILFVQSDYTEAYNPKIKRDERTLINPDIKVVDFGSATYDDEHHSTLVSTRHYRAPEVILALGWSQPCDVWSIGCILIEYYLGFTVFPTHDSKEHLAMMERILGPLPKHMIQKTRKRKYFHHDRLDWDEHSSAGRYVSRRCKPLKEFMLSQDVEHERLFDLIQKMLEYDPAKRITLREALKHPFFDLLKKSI", "test": "Enzymatic kinase assay (Eurofins KinaseProfiler)", "type": "biochemical", "conditions": "10 µM compound, cell-free", "procedure": "(§3) The kinase inhibiting potency of compound 1a, 1b and 1c (10 µM) was screened in a cell-free kinase assay, which consisted of a custom panel of 43 human protein kinases for 1c (listed in Figure 5A), as well as a subpanel of six kinases for 1a and 1b (Figure 5B). The initial panel was chosen to screen the lead compound 1c based on the union of two strategies. A total of 29 kinases were selected based on the correlated results of three in silico target prediction methods including structure- as well as ligand-based techniques and 20 kinases because of their relevance for HCC (note that six kinases were part of both strategies).\n(§4) The assay was performed by Eurofins KinaseProfilerTM service (Eurofins, France) and the determination of enzymatic activity was assessed as previously described. Additionally, an IC50 determination of compound 1c against the VEGFR-2 was performed with a concentration range of 0.003 to 30 µM."}, "[7]": {"target": "T2, EGFR (Homo sapiens, UniProt P00533)", "T2 construct": "purchased Eurofins KinaseProfiler service (Eurofins, France)", "T2 sequence (P00533 25-1210)": "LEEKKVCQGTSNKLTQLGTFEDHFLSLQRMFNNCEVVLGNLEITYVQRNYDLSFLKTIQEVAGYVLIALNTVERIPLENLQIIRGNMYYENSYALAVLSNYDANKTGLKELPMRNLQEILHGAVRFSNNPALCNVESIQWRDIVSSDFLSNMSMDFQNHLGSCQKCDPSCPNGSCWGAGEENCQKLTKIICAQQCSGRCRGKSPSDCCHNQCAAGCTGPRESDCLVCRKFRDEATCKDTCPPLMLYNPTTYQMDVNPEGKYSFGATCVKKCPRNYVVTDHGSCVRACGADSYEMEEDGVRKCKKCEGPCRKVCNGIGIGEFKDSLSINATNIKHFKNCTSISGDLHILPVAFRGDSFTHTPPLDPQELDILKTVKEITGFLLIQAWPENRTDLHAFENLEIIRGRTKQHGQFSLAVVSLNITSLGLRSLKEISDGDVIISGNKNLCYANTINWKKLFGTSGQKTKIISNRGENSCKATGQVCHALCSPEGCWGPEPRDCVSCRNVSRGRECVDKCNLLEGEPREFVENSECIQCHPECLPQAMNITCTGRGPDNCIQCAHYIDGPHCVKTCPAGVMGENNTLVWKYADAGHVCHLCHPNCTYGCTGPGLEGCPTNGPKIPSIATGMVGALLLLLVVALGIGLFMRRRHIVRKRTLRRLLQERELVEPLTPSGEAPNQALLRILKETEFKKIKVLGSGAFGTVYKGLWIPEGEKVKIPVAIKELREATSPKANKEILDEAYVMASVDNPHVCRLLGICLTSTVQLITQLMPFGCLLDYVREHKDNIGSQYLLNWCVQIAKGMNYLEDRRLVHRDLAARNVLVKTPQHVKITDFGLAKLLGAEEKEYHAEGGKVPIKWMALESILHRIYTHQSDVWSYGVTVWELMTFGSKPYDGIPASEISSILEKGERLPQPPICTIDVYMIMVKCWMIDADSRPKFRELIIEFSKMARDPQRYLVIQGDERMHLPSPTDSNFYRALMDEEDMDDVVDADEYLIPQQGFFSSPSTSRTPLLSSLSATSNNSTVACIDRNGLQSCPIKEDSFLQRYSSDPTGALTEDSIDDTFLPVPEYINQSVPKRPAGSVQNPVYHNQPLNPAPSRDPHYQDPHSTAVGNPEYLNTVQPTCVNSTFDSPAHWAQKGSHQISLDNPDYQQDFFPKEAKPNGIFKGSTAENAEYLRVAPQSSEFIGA", "test": "Enzymatic kinase assay (Eurofins KinaseProfiler)", "type": "biochemical", "conditions": "10 µM compound, cell-free", "procedure": "as §3, §4"}, "[8]": {"target": "T3, IGF-1R (Homo sapiens, UniProt P08069)", "T3 construct": "purchased Eurofins KinaseProfiler service (Eurofins, France)", "test": "Enzymatic kinase assay (Eurofins KinaseProfiler)", "type": "biochemical", "conditions": "10 µM compound, cell-free", "procedure": "as §3, §4"}, "[9]": {"target": "T4, Pim-1 (Homo sapiens, UniProt P11309)", "T4 construct": "purchased Eurofins KinaseProfiler service (Eurofins, France)", "T4 sequence (P11309 whole entry)": "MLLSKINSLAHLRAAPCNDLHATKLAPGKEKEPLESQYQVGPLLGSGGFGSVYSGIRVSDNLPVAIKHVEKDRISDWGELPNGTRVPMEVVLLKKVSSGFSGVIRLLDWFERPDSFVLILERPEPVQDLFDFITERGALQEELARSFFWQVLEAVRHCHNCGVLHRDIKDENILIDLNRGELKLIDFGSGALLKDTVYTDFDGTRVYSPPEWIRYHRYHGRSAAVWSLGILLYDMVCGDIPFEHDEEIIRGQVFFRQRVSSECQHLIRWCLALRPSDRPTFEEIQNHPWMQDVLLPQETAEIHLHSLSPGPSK", "test": "Enzymatic kinase assay (Eurofins KinaseProfiler)", "type": "biochemical", "conditions": "10 µM compound, cell-free", "procedure": "as §3, §4"}, "[10]": {"target": "T5, Pim-2 (Homo sapiens, UniProt Q9P1W9)", "T5 construct": "purchased Eurofins KinaseProfiler service (Eurofins, France)", "T5 sequence (Q9P1W9 whole entry)": "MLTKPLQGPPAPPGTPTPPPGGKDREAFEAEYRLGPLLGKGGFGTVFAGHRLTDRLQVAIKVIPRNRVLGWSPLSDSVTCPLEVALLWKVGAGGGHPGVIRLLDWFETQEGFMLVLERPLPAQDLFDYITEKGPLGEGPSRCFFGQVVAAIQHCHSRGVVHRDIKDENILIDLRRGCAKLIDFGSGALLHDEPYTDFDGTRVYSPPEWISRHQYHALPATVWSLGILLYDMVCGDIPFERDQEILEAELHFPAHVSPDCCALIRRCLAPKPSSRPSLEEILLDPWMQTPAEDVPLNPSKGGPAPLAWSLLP", "test": "Enzymatic kinase assay (Eurofins KinaseProfiler)", "type": "biochemical", "conditions": "10 µM compound, cell-free", "procedure": "as §3, §4"}, "[11]": {"target": "T6, VEGFR-1 (Homo sapiens, UniProt P17948)", "T6 construct": "purchased Eurofins KinaseProfiler service (Eurofins, France)", "test": "Enzymatic kinase assay (Eurofins KinaseProfiler)", "type": "biochemical", "conditions": "10 µM compound, cell-free", "procedure": "as §3, §4"}, "[12]": {"target": "T7, VEGFR-2 (KDR) (Homo sapiens, UniProt P35968)", "T7 construct": "purchased Eurofins KinaseProfiler service (Eurofins, France)", "T7 sequence (P35968 20-1356)": "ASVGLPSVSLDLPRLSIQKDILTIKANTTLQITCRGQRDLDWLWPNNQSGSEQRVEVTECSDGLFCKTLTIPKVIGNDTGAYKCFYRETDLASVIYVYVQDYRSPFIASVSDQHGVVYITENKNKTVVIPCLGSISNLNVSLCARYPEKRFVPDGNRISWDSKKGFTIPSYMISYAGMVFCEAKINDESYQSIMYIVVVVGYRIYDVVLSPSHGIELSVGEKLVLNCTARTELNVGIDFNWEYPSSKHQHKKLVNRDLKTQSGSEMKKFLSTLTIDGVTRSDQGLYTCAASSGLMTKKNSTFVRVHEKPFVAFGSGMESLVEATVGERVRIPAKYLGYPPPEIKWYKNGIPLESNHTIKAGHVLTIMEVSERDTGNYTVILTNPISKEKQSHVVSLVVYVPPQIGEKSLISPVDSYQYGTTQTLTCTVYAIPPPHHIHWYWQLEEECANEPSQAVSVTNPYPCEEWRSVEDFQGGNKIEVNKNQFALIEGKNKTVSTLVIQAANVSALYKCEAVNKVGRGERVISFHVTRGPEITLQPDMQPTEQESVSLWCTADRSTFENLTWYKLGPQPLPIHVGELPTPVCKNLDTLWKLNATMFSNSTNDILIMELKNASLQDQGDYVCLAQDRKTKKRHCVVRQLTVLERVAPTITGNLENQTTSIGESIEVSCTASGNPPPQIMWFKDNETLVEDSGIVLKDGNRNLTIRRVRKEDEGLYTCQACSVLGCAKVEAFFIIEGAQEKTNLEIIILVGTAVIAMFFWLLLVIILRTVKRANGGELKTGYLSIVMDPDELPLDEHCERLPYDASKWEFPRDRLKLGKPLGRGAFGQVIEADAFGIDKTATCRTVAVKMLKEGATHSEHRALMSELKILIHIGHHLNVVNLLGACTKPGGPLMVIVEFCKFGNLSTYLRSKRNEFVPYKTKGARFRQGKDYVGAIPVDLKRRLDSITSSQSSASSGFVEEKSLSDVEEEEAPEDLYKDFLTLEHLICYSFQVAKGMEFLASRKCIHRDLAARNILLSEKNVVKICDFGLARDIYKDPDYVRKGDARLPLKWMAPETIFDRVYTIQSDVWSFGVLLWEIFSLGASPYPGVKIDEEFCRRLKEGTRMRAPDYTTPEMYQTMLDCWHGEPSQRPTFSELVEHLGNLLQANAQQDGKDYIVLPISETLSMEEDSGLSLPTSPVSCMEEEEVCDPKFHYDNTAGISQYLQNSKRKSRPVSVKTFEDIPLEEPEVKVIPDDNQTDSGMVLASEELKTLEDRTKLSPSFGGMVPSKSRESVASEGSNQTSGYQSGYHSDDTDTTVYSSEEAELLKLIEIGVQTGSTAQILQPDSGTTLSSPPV", "test": "Enzymatic kinase assay (Eurofins KinaseProfiler)", "type": "biochemical", "procedure": "as §3, §4"}, "[13]": {"target": "T8, c-KIT (Homo sapiens, UniProt P10721)", "T8 construct": "purchased Eurofins KinaseProfiler service (Eurofins, France)", "T8 sequence (P10721 26-976)": "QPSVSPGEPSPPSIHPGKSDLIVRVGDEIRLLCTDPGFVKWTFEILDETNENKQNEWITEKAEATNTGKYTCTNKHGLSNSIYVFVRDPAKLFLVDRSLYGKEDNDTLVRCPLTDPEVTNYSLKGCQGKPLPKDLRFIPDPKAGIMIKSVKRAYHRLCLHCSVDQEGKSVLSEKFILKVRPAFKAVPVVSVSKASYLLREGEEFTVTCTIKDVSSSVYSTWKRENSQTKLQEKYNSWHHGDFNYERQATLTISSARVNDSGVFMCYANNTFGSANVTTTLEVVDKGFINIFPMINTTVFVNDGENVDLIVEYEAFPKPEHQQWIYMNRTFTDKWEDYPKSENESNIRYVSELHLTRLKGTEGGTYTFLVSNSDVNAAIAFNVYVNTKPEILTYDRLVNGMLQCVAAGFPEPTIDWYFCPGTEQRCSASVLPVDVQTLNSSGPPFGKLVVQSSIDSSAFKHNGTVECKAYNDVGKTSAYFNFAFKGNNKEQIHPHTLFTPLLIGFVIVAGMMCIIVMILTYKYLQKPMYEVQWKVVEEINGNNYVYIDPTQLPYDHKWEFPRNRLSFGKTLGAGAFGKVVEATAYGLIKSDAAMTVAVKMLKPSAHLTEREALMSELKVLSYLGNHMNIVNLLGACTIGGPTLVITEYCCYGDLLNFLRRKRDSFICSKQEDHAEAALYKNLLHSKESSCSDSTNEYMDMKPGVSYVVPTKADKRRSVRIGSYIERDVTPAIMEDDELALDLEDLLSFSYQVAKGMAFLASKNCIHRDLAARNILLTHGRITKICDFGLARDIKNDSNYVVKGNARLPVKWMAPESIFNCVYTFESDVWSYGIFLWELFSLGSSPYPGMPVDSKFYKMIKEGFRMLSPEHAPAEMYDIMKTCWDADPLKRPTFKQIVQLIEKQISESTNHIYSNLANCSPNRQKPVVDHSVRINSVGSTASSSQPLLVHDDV", "test": "Enzymatic kinase assay (Eurofins KinaseProfiler)", "type": "biochemical", "conditions": "10 µM compound, cell-free", "procedure": "as §3, §4"}},
  "data": [
    {"molecule": "COc1ccc(C=C(C#N)c2cccs2)cc1O", "note": "[Compound 1c, 2-[1-Cyano-2-(3-hydroxy-4-methoxyphenyl)-(E)-ethenyl)]-thiophene]", "values": [
      {"measurement": "IC50", "setting": "[1]", "result": "550 ± 260", "unit": "nM"},
      {"measurement": "IC50", "setting": "[2]", "result": "320 ± 150", "unit": "nM"},
      {"measurement": "IC50 against AML-12 hepatocytes relative to hepatoma cells", "setting": "[3]; AML-12 vs hepatoma cells (HepG2, Huh-7), 48 h", "result": "up to 10 fold"},
      {"measurement": "IC50", "setting": "[3]; Mus musculus, AML12, 48 h incubation, mean ± SD, read-out: Anti-proliferative activity IC50, AML-12", "result": "1810 ± 310", "unit": "nM"},
      {"measurement": "tumor weight after treatment (in words)", "setting": "[4]; extracted tumors after 3 days of treatment, 1c 0–2.5 µM", "result": "significant mass reduction"},
      {"measurement": "tumor reduction vs PBS-treated controls (in words)", "setting": "[4]; topical treatment 72 h, 1b 0–10 µM, 1c 0–2.5 µM, sorafenib 10 µM", "result": "pronounced tumor reductions"},
      {"measurement": "tolerability, mortality and development of chicken embryos", "setting": "[4]; treated vs untreated eggs", "result": "well tolerated"},
      {"measurement": "caspase-3 activity (in words)", "setting": "[5]", "result": "dose-dependently induced caspase-3 activity"},
      {"measurement": "inhibition at 10 µM", "setting": "[6]", "result": 69, "unit": "%"},
      {"measurement": "inhibition of EGFR (in words)", "setting": "[7]", "result": "no relevant inhibition"},
      {"measurement": "inhibition of IGF-1R (in words)", "setting": "[8]", "result": "no relevant inhibition"},
      {"measurement": "inhibition at 10 µM", "setting": "[9]", "result": 71, "unit": "%"},
      {"measurement": "inhibition at 10 µM", "setting": "[10]", "result": 60, "unit": "%"},
      {"measurement": "inhibition at 10 µM", "setting": "[11]", "result": 75, "unit": "%"},
      {"measurement": "inhibition at 10 µM", "setting": "[12]; 10 µM compound, cell-free", "result": 89, "unit": "%"},
      {"measurement": "IC50", "setting": "[12]; concentration range 0.003 to 30 µM, read-out: IC50 against VEGFR-2", "result": 3320, "unit": "nM"},
      {"measurement": "inhibition at 10 µM", "setting": "[13]", "result": 61, "unit": "%"}
    ]}
  ]
}
